# Laboratory results taken from patent US20100144779A1, “Marine Alkalod Makaluvamines and Derivatives Thereof” (THE UAB RESEARCH FOUNDATION, priority 2007, published 2010).
# How the values were obtained:
# Test in all cases: NCI60 cell line screen (SRB)
# Assay type in all cases: cell-based, human
# [1] = test system: HL-60; conditions: HL-60, Leukemia, 48 h
# Description: (§1) This panel implements the NCI60 cell line screen, including leukemia, non-small cell lung cancer, colon cancer, central nervous system cancer, melanoma, ovarian cancer, renal cancer, prostate cancer and breast cancer. The cell lines tested are specified in Table 3.
# (§2) Generally, the human tumor cell lines of the cancer screening panel are grown in RPMI 1640 medium containing 5% fetal bovine serum and 2 mM L-glutamine. For a typical screening experiment, cells are inoculated into 96 well microtiter plates in 100 μL at plating densities ranging from 5,000 to 40,000 cells/well depending on the doubling time of individual cell lines. After cell inoculation, the microtiter plates are incubated at 37° C., 5% CO2, 95% air and 100% relative humidity for 24 h prior to addition of experimental drugs. After 24 h, two plates of each cell line are fixed in situ with TCA, to represent a measurement of the cell population for each cell line at the time of drug addition (Tz). Experimental drugs are solubilized in dimethyl sulfoxide at 400-fold the desired final maximum test concentration and stored frozen prior to use. At the time of drug addition, an aliquot of frozen concentrate is thawed and diluted to twice the desired final maximum test concentration with complete medium containing 50 μg/ml gentamicin. Additional four, 10-fold or ½ log serial dilutions are made to provide a total of five drug concentrations plus control. Aliquots of 100 μl of these different drug dilutions are added to the appropriate microtiter wells already containing 100 μl of medium, resulting in the required final drug concentrations.
# (§3) Following drug addition, the plates are incubated for an additional 48 h at 37° C., 5% CO2, 95% air, and 100% relative humidity. For adherent cells, the assay is terminated by the addition of cold TCA. Cells are fixed in situ by the gentle addition of 50 μl of cold 50% (w/v) TCA (final concentration, 10% TCA) and incubated for 60 minutes at 4° C. The supernatant is discarded, and the plates are washed five times with tap water and air dried. Sulforhodamine B (SRB) solution (100 μl) at 0.4% (w/v) in 1% acetic acid is added to each well, and plates are incubated for 10 minutes at room temperature. After staining, unbound dye is removed by washing five times with 1% acetic acid and the plates are air dried. Bound stain is subsequently solubilized with 10 mM trizma base, and the absorbance is read on an automated plate reader at a wavelength of 515 nm. For suspension cells, the methodology is the same except that the assay is terminated by fixing settled cells at the bottom of the wells by gently adding 50 μl of 80% TCA (final concentration, 16% TCA). Using the seven absorbance measurements (time zero, Tz, control growth, (control), and test growth in the presence of drug at the five concentration levels (Ti)), the percentage growth is calculated at each of the drug concentrations levels. Percentage growth inhibition is calculated as:
# (§4) [(Ti−Tz)/(C−Tz)]×100 for concentrations for which Ti>/=Tz
# (§5) [(Ti−Tz)/Tz]×100 for concentrations for which Ti<Tz.
# [2] = test system: RXF 393; conditions: RXF 393, Renal Cancer, 48 h
# Description: as §1, §2, §3, §4, §5
# [3] = test system: NCI-H226; conditions: NCI-H226, Non-Small Cell Lung Cancer, 48 h
# Description: as §1, §2, §3, §4, §5
# [4] = test system: TK-10; conditions: TK-10, Renal Cancer, 48 h
# Description: as §1, §2, §3, §4, §5
# [5] = test system: A498; conditions: A498, Renal Cancer, 48 h
# Description: as §1, §2, §3, §4, §5
# [6] = test system: SF-268; conditions: SF-268, CNS Cancer, 48 h
# Description: as §1, §2, §3, §4, §5
# [7] = test system: UO-31; conditions: UO-31, Renal Cancer, 48 h
# Description: as §1, §2, §3, §4, §5
# [8] = test system: MCF-7; conditions: MCF-7, Breast Cancer, 48 h
# Description: as §1, §2, §3, §4, §5
# [9] = test system: HCC-2998; conditions: HCC-2998, Colon Cancer, 48 h
# Description: as §1, §2, §3, §4, §5
# [10] = test system: OVCAR4; conditions: OVCAR4, Ovarian Cancer, 48 h
# Description: as §1, §2, §3, §4, §5
# [11] = test system: UACC-62; conditions: UACC-62, Melanoma, 48 h
# Description: as §1, §2, §3, §4, §5
# [12] = test system: SK-MEL-28; conditions: SK-MEL-28, Melanoma, 48 h
# Description: as §1, §2, §3, §4, §5
# [13] = test system: M14; conditions: M14, Melanoma, 48 h
# Description: as §1, §2, §3, §4, §5
# [14] = test system: DU-145; conditions: DU-145, Prostate Cancer, 48 h
# Description: as §1, §2, §3, §4, §5
# [15] = test system: MOLT-4; conditions: MOLT-4, Leukemia, 48 h
# Description: as §1, §2, §3, §4, §5
# [16] = test system: EKVX; conditions: Non-Small Cell Lung Cancer, 48 h
# Description: as §1, §2, §3, §4, §5
# [17] = test system: OVCAR8; conditions: OVCAR8, Ovarian Cancer, 48 h
# Description: as §1, §2, §3, §4, §5
# [18] = test system: 786-0; conditions: 786-0, Renal Cancer, 48 h
# Description: as §1, §2, §3, §4, §5
# [19] = test system: SK-MEL-5; conditions: SK-MEL-5, Melanoma, 48 h
# Description: as §1, §2, §3, §4, §5
# [20] = test system: SF-539; conditions: SF-539, CNS Cancer, 48 h
# Description: as §1, §2, §3, §4, §5
# [21] = test system: K-562; conditions: K-562, Leukemia, 48 h
# Description: as §1, §2, §3, §4, §5
# [22] = test system: SF-295; conditions: SF-295, CNS Cancer, 48 h
# Description: as §1, §2, §3, §4, §5
# [23] = test system: OVCAR5; conditions: OVCAR5, Ovarian Cancer, 48 h
# Description: as §1, §2, §3, §4, §5
# [24] = test system: NCI-H552; conditions: NCI-H552, Non-Small Cell Lung Cancer, 48 h
# Description: as §1, §2, §3, §4, §5
# [25] = test system: SR; conditions: Leukemia, 48 h
# Description: as §1, §2, §3, §4, §5
compound,measurement,setting,value
CNC1=CC2=NCCc3c[nH]c(c32)C1=O [Compound 4a],GI50,[1],2.54 µM
same,GI50,[2],4.22 µM
same,GI50,[3],11.1 µM
same,GI50,[4],15.4 µM
same,GI50,[5],20.7 µM
same,GI50,[6],2.09 µM
same,GI50,[7],14.6 µM
same,GI50,[8],1.52 µM
same,GI50,[9],4.91 µM
same,GI50,[10],1.08 µM
same,GI50,[11],2.49 µM
same,GI50,[12],6.62 µM
same,GI50,[13],2.57 µM
same,GI50,[14],2.29 µM
same,GI50,[15],1.97 µM
same,GI50,[16],2.2 µM
same,GI50,[17],3.19 µM
same,GI50,[18],10.5 µM
same,GI50,[19],1.45 µM
same,GI50,[20],2.39 µM
same,GI50,[21],2.19 µM
same,GI50,[22],1.21 µM
same,GI50,[23],17.3 µM
same,GI50,[24],4.13 µM
same,GI50,[25],3.12 µM
O=C1C(NCc2ccccc2)=CC2=NCCc3c[nH]c1c32 [Compound 4c],GI50,[1],0.325 µM
same,GI50,[2],2.09 µM
same,GI50,[3],5.45 µM
same,GI50,[4],4.72 µM
same,GI50,[5],16.5 µM
same,GI50,[6],2.83 µM
same,GI50,[7],2.63 µM
same,GI50,[8],0.061 µM
same,GI50,[9],2.61 µM
same,GI50,[10],0.624 µM
same,GI50,[11],1.82 µM
same,GI50,[12],7.42 µM
same,GI50,[13],1.28 µM
same,GI50,[14],1.79 µM
same,GI50,[15],0.315 µM
same,GI50,[16],0.271 µM
same,GI50,[17],2.08 µM
same,GI50,[18],3.22 µM
same,GI50,[19],0.462 µM
same,GI50,[20],1.91 µM
same,GI50,[21],2.36 µM
same,GI50,[22],1.12 µM
same,GI50,[23],2.67 µM
same,GI50,[24],1.69 µM
same,GI50,[25],1.75 µM
O=C(O)C(F)(F)F.O=C1C(NCCc2ccc3c(c2)OCO3)=CC2=NCCc3c[nH]c1c32 [Compound 6],GI50,[1]; Homo sapiens,1.92 µM
same,GI50,[3]; Homo sapiens,4.38 µM
same,GI50,[4]; Homo sapiens,4.51 µM
same,GI50,[5]; Homo sapiens,6.03 µM
same,GI50,[6]; Homo sapiens,3.66 µM
same,GI50,[7]; Homo sapiens,5.84 µM
same,GI50,"[8]; Homo sapiens, MCF7",1.21 µM
same,GI50,[9]; Homo sapiens,1.56 µM
same,GI50,"[10]; Homo sapiens, OVCAR-4",0.971 µM
same,GI50,[11]; Homo sapiens,2.32 µM
same,GI50,[12]; Homo sapiens,4.91 µM
same,GI50,[13]; Homo sapiens,1.43 µM
same,GI50,[14]; Homo sapiens,1.35 µM
same,GI50,[15]; Homo sapiens,2.02 µM
same,GI50,[16]; Homo sapiens,1.96 µM
same,GI50,"[17]; Homo sapiens, OVCAR-8",1.62 µM
same,GI50,[18]; Homo sapiens,3.98 µM
same,GI50,[19]; Homo sapiens,0.965 µM
same,GI50,[20]; Homo sapiens,2.21 µM
same,GI50,"[21]; Homo sapiens, K562",3.43 µM
same,GI50,[22]; Homo sapiens,1.87 µM
same,GI50,"[23]; Homo sapiens, OVCAR-5",2.72 µM
same,GI50,[24]; Homo sapiens,2.62 µM
same,GI50,[25]; Homo sapiens,2.5 µM
COc1ccc(CCNC2=CC3=NCCc4c[nH]c(c43)C2=O)cc1OC.O=C(O)C(F)(F)F [Compound 20],GI50,[1]; Homo sapiens,3.14 µM
same,GI50,[3]; Homo sapiens,1.06 µM
same,GI50,[4]; Homo sapiens,5.1 µM
same,GI50,[5]; Homo sapiens,7.24 µM
same,GI50,[6]; Homo sapiens,< 0.01 µM
same,GI50,[7]; Homo sapiens,7.11 µM
same,GI50,"[8]; Homo sapiens, MCF7",2.61 µM
same,GI50,[9]; Homo sapiens,2.35 µM
same,GI50,"[10]; Homo sapiens, OVCAR-4",1.16 µM
same,GI50,[11]; Homo sapiens,2.17 µM
same,GI50,[12]; Homo sapiens,10.1 µM
same,GI50,[13]; Homo sapiens,2.26 µM
same,GI50,[14]; Homo sapiens,2.81 µM
same,GI50,[15]; Homo sapiens,4.95 µM
same,GI50,[16]; Homo sapiens,3.08 µM
same,GI50,"[17]; Homo sapiens, OVCAR-8",1.79 µM
same,GI50,[18]; Homo sapiens,5.43 µM
same,GI50,[19]; Homo sapiens,1.33 µM
same,GI50,[20]; Homo sapiens,3.28 µM
same,GI50,"[21]; Homo sapiens, K562",16.9 µM
same,GI50,[22]; Homo sapiens,1.84 µM
same,GI50,"[23]; Homo sapiens, OVCAR-5",5.14 µM
same,GI50,[24]; Homo sapiens,2.24 µM
same,GI50,[25]; Homo sapiens,5.69 µM
O=C(O)C(F)(F)F.O=C1C(NCc2ccc(F)cc2)=CC2=NCCc3c[nH]c1c32 [Compound 28],GI50,[1]; Homo sapiens,1.53 µM
same,GI50,[2]; Homo sapiens,≤ 0.01 µM
same,GI50,[3]; Homo sapiens,2.34 µM
same,GI50,[4]; Homo sapiens,3.19 µM
same,GI50,[5]; Homo sapiens,3.11 µM
same,GI50,[6]; Homo sapiens,1.66 µM
same,GI50,[7]; Homo sapiens,2.59 µM
same,GI50,"[8]; Homo sapiens, MCF7",0.16 µM
same,GI50,[9]; Homo sapiens,2.7 µM
same,GI50,"[10]; Homo sapiens, OVCAR-4",1.09 µM
same,GI50,[11]; Homo sapiens,1.56 µM
same,GI50,[12]; Homo sapiens,5.78 µM
same,GI50,[13]; Homo sapiens,1.44 µM
same,GI50,[14]; Homo sapiens,1.08 µM
same,GI50,[15]; Homo sapiens,0.793 µM
same,GI50,[16]; Homo sapiens,0.453 µM
same,GI50,"[17]; Homo sapiens, OVCAR-8",1.97 µM
same,GI50,[18]; Homo sapiens,3.45 µM
same,GI50,[19]; Homo sapiens,0.325 µM
same,GI50,[20]; Homo sapiens,1.74 µM
same,GI50,"[21]; Homo sapiens, K562",1.07 µM
same,GI50,[22]; Homo sapiens,1.06 µM
same,GI50,"[23]; Homo sapiens, OVCAR-5",2.37 µM
same,GI50,[24]; Homo sapiens,2 µM
same,GI50,[25]; Homo sapiens,1.21 µM
